Patent US8324284B2, “Migrastatin analogs and uses thereof” (Sloan-Kettering Institute for Cancer Research, priority 2003, dated 2012)
Like-named read-outs stand apart in the source and are kept apart here.

What was measured:
[1] = rcm bond, toluene, 0.25 h
[2] = test system: 4T1 mouse breast tumor cells; assay: Chamber cell migration assay with 4T1 tumor cells; assay type: cell-based; details: for IC50: Boyden chamber, 6-8 h, average of three experiments; for inhibitory activity on 4T1 tumor cell migration, in words: chamber assay
Protocol: The biological evaluation of the compounds (in terms of their ability to inhibit cell migration) was accomplished in a Boyden chamber cell migration assay. In this assay, mouse breast tumor cells (4T1 cells) or endothelial cells (HUVECs) are seeded on the upper chamber of a transwell insert. Growth factor-containing serum is added to the lower chamber.
Chamber Cell Migration Assay (Tables 4 and 6): Cell migrations were assayed with Boyden chambers [8.0 μm pore size, polyethylene terephthalate membrane, FALCON cell culture insert (Becton-Dickinson)]. 4T1 mouse breast tumor cells or HUVECs were trypsinized and counted. 300 μl of 5−10×10^4 cells in serum-free medium was added to the upper chamber and 500 μl of medium with 10% fetal bovine serum (FBS) was added to the lower chamber. […] Cells on the inside of the transwell inserts were removed with a cotton swab, and cells on the underside of the insert were fixed and stained. Photographs of three random regions were taken and the number of cells was counted to calculate the average number of cells that have transmigrated.

[3] = test system: HUVEC; assay: Tube formation assay; assay type: cell-based, human; details: minimal concentration causing definite disturbance of tube network; 16-18 h; tested 200, 100, 50, 25, 10 μM
Protocol: A protocol was designed based on the instructions from the provider (BD Bioscience, San Jose, Calif.). Briefly, wells of a 48 well culture dish were covert with 150 μL matrigel and the matrigel was gelatinized for 30 min at 37° C. A 80-90% confluent HUVEC (BD Bioscience, San Jose, Calif.) culture was trypsin treated, the detached cells were collected by centrifugation and resuspended in EGM-2 media (BD Bioscience, San Jose, Calif.). Cell concentration was adjusted to 100.000 cells/mL. 400 μL of the cell suspension were filled in the matrigel coated wells, and a solution of the inhibitor was added to the intended final concentration. The plates were incubated at 37° C. with 5% CO2 for 16-18 h. Media was removed, and the matrigel surface was washed twice with 500 μL PBS before cells were labeled with 250 μL […] Calcein AM (Pierce, Rockford, Ill.) in PBS for 30 min at 37° C. After two additional washing steps (500 μL PBS) cells were visualized under an inverted microscope. Fluorescence was excited at 488 nm and recorded at 538 nm. The minimum effect concentration was defined as the minimal inhibitor concentration that caused a definite disturbance of the complexity of the formed tube network.

[4] = test system: KYSE-520 cells; assay: Wound healing (scratch) assay; assay type: cell-based; details: 28 to 30 h, tested 200, 100, 50, 25, 10 μM
Protocol: The wound healing assay was performed based on the method described by Nakae et al. (Nakae et al., J. Antibiotics (2000), 53, 1130-1136). Briefly, adherent cells were grown in a suitable media to confluence (e.g. KYSE-520 cells in RPMI-1640 with 10% FBS). Cells were starved for 24 h in serum free media. A scratch (ca. 0.5 mm) was applied and the cell layer was washed twice with PBS after removal of the media. Fresh, serum free media with the test compound at the desired concentration was added and the cells were incubated for 28 to 30 h at 37° C., 5% CO2. The scratch size was compared to that observed for cells exposed to 100 μM Migrastatin. Test compounds associated with a scratch size equal to or larger than that observed for cells exposed to 100 μM Migrastatin were deemed to have cell migration inhibitory activity at least equal to Migrastatin.

[5] = test system: 4T1 tumor lung metastasis; assay: 4T1 tumor lung metastasis in syngeneic mice; assay type: in vivo, mouse; details: for lung metastasis, colonies (6-thioguanine clonogenic assay): mean and standard deviation; for inhibition of lung metastasis: 10 mg/kg i.p. daily Day 7-25
Protocol: Female BALB/c mice (6-8 week old) were purchased from the Jackson Laboratory (Bar Harbor, Me.). All mice were housed at the Weill Medical College of Cornell University Animal Facilities in accordance with the Principles of Animal Care (NIH publication no. 85-23, revised 1985). 4T1 tumor cells (1×10^5) were injected subcutaneously into the abdominal mammary gland area of mice in 0.1 ml of a single-cell suspension in phosphate buffered saline (PBS) on Day 0. The dosage of tumor implantation was empirically determined to give rise to tumor of ˜10 mm in diameter in untreated wild type mice in 21-23 days. On Day 7, when the tumors averaged in size ˜4-5 mm in diameter, migrastatin analogs or control PBS saline were given every day by intraperitoneal injection at 10 mg/kg or 20 mg/kg per mouse until Day 25. On Day 28, the mice were sacrificed. This regiment of migrastatin analogs was well tolerated with no signs of overt toxicity. Every group included five mice. Primary tumors were measured using electronic calipers on the day when the mice were sacrificed. Tumor size was the square root of the product of two perpendicular diameters. Numbers of metastatic 4T1 cells in lung were determined by the clonogenic assay.^63 In brief, lungs were removed from each mouse on Day 28, finely minced and digested in 5 ml of enzyme cocktail containing 1×PBS and 1 mg/ml collagenase type IV for 2 hours at 37° C. on a platform rocker. After incubation, samples were filtered through 70 uM nylon cell strainers and washed twice with PBS. Resulting cells were suspended and plated serially diluted in 10 cm tissue culture dishes in medium RPMI1640 containing 60 uM thioguanine for clonogenic growth. 6-Thioguanine-resistant tumor cells formed foci after 14 days, at which time they were fixed with methanol and stained with 0.03% methylene blue for counting.
Treatment 4T1 tumor lung metastasis in syngeneic mice with migrastatin analogs (See, FIG. 4). 4T1 tumor cells (10^5) were injected s.c. in the abdominal mammary gland with 0.1 ml of a single-cell suspension. Macroketone or macrolactam at 10 mg/kg or 20 mg/kg was given i.p. on Day 7 when the tumor size was about 5 mm in diameter, and every day until Day 25. On Day 28, the mice were sacrificed. Each group comprised five mice. Lung metastasis was measured by the 6-thiogunine clonogenic assay. The mean and standard deviation are presented. In the control group (daily PBS injection), there were 61300±18900 colonies.

[6] = Metabolic stability in mouse plasma; assay type: in vitro ADME; details: mouse plasma/PBS, 37° C.
Protocol: Mouse Plasma Stability Studies (Table 5): HPLC conditions: The sample is injected and separated using an Inertsil ODS3 6u 3×150 mm column with a mobile phase of MeCN and water (50% for migrastatin) at a flow of 0.4 mL/min, monitored at 220 nm at 0.02 AUFS (the retention time for migrastatin is ca. 4 min, the identity of this peak was confirmed by mass spectral analysis). Incubation and sample preparation conditions: A solution (ca. 30 mM) of chemical compound (Table 5) in DMSO is prepared. 2 μL of the solution is added to a mixture containing 200 μL of mouse plasma and 800 μL of PBS. The resulting solution is put into a water bath at 37° C., and 100 μL of sample is withdrawn at 10, 20, 30, 45, and 60 min. The precipitate is removed by centrifugation and 20 μL of the supernatant is injected onto the HPLC.

Molecule: CO[C@H]1C=CCC/C=C/C(=O)OC/C(C)=C\[C@@H](C)[C@@H]1O[Si](C)(C)C(C)(C)C
- ring closure, yield of all isomers ([1]; from C=CCC/C=C/C(=O)OC/C(C)=C\[C@@H](C)[C@H](O[Si](C)(C)C(C)(C)C)[C@H](C=C)OC, Grubbs-II catalyst, 0.664 mM, 110.0 °C): 55%

Molecule: CO[C@H]1C=CCC/C=C/C(=O)O[C@H]([C@H](C)C(=O)CCCC2CC(=O)NC(=O)C2)/C(C)=C\[C@@H](C)[C@@H]1O[Si](C)(C)C(C)(C)C
- ring closure, yield of all isomers ([1]; from C=CCC/C=C/C(=O)O[C@@H](/C(C)=C\[C@@H](C)[C@H](O[Si](C)(C)C(C)(C)C)[C@H](C=C)OC)[C@H](C)C(=O)CCCC1CC(=O)NC(=O)C1, Grubbs-II catalyst, 0.46 mM, 110.0 °C): 69%

Molecule: CO[C@H]1C=CCCCCC(=O)CC/C(C)=C\[C@@H](C)[C@@H]1O[Si](C)(C)C(C)(C)C
- ring closure, yield of all isomers ([1]; from C=CCCCCC(=O)CC/C(C)=C\[C@@H](C)[C@H](O[Si](C)(C)C(C)(C)C)[C@H](C=C)OC, Grubbs-II, 0.508 mM, 111.0 °C): 81%

Molecule: CO[C@H]1C=CCCCCC(=O)OC/C(C)=C\[C@@H](C)[C@@H]1O[Si](C)(C)C(C)(C)C
- ring closure, yield of all isomers ([1]; from C=CCCCCC(=O)OC/C(C)=C\[C@@H](C)[C@H](O[Si](C)(C)C(C)(C)C)[C@H](C=C)OC, Grubbs-II catalyst, 0.498 mM, 110.0 °C): 76%

Molecule: CO[C@H]1C=CCCCCC(=O)O[C@@H](C(C)C)/C(C)=C\[C@@H](C)[C@@H]1O
- ring closure, yield of all isomers ([1]; from C=CCCCCC(=O)O[C@H](/C(C)=C\[C@@H](C)[C@H](O[Si](C)(C)C(C)(C)C)[C@H](C=C)OC)C(C)C, Grubbs-II, 0.53 mM, 111.0 °C, 2 steps): 65%

Molecule: CO[C@H]1C=CCCCCC(=O)O[C@H]([C@H](C)C(=O)CCCC2CC(=O)NC(=O)C2)/C(C)=C\[C@@H](C)[C@@H]1O[Si](C)(C)C(C)(C)C
- ring closure, yield of all isomers ([1]; from C=CCCCCC(=O)O[C@@H](/C(C)=C\[C@@H](C)[C@H](O[Si](C)(C)C(C)(C)C)[C@H](C=C)OC)[C@H](C)C(=O)CCCC1CC(=O)NC(=O)C1, Grubbs-II catalyst, 0.48 mM, 110.0 °C): 79%

Molecule: COC1C=CCCCCC(=NNC(=O)CCOCCOCCOCCOCCNC(=O)CCCCC2SCC3NC(=O)NC32)CCC(C)=CC(C)C1O (mixture of isomers) [biotinylated macrohydrazone (73), Biotinylated Macrohydrazone]
- IC50 [2]: 0.331 µM
- inhibitory activity on 4T1 tumor cell migration, in words [2]: inhibitory potency is largely retained

Molecule: COC1C=CCCCCC(=O)OC(C(C)C(=O)CCCC2CC(=O)NC(=O)C2)C(C)=CC(C)C1O (stereo not shown) [2,3-dihydromigrastatin (41), 2,3-Dihydromigrastatin]
- Minimum effect concentration [3]: 50 µM
- Minimum effect concentration [4]: 25 µM

Molecule: COC1C=CCCCCC(=O)OC(C(C)C)C(C)=CC(C)C1O [(R)-isopropyl macrolactone (68), (R)-Isopropyl Macrolactone]
- IC50 [2]: 146 µM
- inhibitory activity on 4T1 tumor cell migration, in words [2]: only very weak effects on tumor cell migration

Molecule: COC1C=CCCCCC(=O)OC(C(C)C)C(C)=CC(C)C1O [(S)-isopropyl macrolactone (65), (S)-Isopropyl Macrolactone]
- IC50 [2]: 227 µM
- inhibitory activity on 4T1 tumor cell migration, in words [2]: only very weak effects on tumor cell migration

Molecule: COC1C=CCCCCC(=O)OC(C(C)C(=O)CCCC2CC(=O)N(C)C(=O)C2)C(C)=CC(C)C1O (stereo not shown) [N-methyl-2,3-dihydromigrastatin (42), N-Methyl-2,3-Dihydromigrastatin]
- IC50 [2]: 7 µM

Molecule: CO[C@H]1/C=C/CCCCC(=O)OC/C(C)=C\[C@@H](C)[C@@H]1OC(C)=O [acetylated macrolactone (49), Acetylated Macrolactone]
- inhibitory activity on 4T1 tumor cell migration, in words [2]: reduced by roughly an order of magnitude

Molecule: C[C@@H]1O[C@H]2C3=C(C(=O)[C@@H]4O[C@@H]4[C@H]3O)[C@@H]1[C@H]1[C@H](C)OC=C3[C@H](O)[C@H]4OC4C(=O)[C@@]312 (stereo partly shown) [epoxyquinol, epoxyquinol A, reference compound]
- IC50 [2]: 0.026 µM

Molecule: CO[C@H]1/C=C/CCCCC(O)(C(F)(F)F)CC/C(C)=C\[C@@H](C)[C@@H]1O (stereo partly shown) [macrocyclic CF3-alcohol (71), Macrocyclic CF3-Alcohol]
- inhibitory activity on 4T1 tumor cell migration, in words [2]: displays the same activity profile as macroketone 60

Molecule: COC1C=CCCCCC(=O)NCC(C)=CC(C)C1O (stereo not shown) [macrolactam (55), Macrolactam]
- lung metastasis, colonies (6-thioguanine clonogenic assay) ([5]; 10 mg/kg i.p. daily Day 7-25, Day 28): 5333±1778 colonies
- inhibition of lung metastasis ([5]; listed as macrolactam): 91%
- inhibition of lung metastasis ([5]; listed as macrolactam 55): ~91%
- lung metastasis, colonies (6-thioguanine clonogenic assay) ([5]; 20 mg/kg i.p. daily Day 7-25, Day 28): 5675±6263 colonies

Molecule: COC1C=CCCC=CC(=O)OCC(C)=CC(C)C1O (stereo not shown) [migrastatin core (45), Migrastatin Core]
- Minimum effect concentration [3]: 10 µM
- stability (t1/2, mouse plasma) [6]: 20 min
- stability (t1/2, mouse plasma), in words ([6]; 60 min of incubation, stable = intensity of HPLC signal unchanged): hydrolyzed rapidly

Molecule: CO[C@H]1/C=C/CCCCC(=O)OC/C(C)=C\[C@@H](C)C1=O [oxidized macrolactone (50), Oxidized Macrolactone]
- inhibitory activity on 4T1 tumor cell migration, in words [2]: reduced by roughly an order of magnitude

Molecule: N-Methyl-migrastatin
- Minimum effect concentration [3]: 200 µM
- Minimum effect concentration [4]: 100 µM
